Measured values taken from patent US9796711B2, “Substituted pyrazolo[3,4-b]pyridin-6-carboxylic acids and method of use” (AbbVie S.àr.l., priority 2015, dated 2017).

What was measured:
ΔF508-CFTR [1] = target: T1, ΔF508-CFTR (Homo sapiens, UniProt P13569, DEL508-508); assay: CFTR cell surface levels using HRP-tagged ΔF508-CFTR expressing CFBE cells, intrinsic corrector capacity; format: cell-based; conditions: HRP-tagged ΔF508-CFTR CFBE41o- cells, compounds alone (intrinsic corrector capacity), 20 hours at 33° C.; for % Activation: positive control 3 μM corrector; for EC50: read-out: EC50
T1 construct: host or cells: CFBE41o-, doxycycline-inducible
T1 sequence (P13569 with tags, fused parts or gaps DEL508-508): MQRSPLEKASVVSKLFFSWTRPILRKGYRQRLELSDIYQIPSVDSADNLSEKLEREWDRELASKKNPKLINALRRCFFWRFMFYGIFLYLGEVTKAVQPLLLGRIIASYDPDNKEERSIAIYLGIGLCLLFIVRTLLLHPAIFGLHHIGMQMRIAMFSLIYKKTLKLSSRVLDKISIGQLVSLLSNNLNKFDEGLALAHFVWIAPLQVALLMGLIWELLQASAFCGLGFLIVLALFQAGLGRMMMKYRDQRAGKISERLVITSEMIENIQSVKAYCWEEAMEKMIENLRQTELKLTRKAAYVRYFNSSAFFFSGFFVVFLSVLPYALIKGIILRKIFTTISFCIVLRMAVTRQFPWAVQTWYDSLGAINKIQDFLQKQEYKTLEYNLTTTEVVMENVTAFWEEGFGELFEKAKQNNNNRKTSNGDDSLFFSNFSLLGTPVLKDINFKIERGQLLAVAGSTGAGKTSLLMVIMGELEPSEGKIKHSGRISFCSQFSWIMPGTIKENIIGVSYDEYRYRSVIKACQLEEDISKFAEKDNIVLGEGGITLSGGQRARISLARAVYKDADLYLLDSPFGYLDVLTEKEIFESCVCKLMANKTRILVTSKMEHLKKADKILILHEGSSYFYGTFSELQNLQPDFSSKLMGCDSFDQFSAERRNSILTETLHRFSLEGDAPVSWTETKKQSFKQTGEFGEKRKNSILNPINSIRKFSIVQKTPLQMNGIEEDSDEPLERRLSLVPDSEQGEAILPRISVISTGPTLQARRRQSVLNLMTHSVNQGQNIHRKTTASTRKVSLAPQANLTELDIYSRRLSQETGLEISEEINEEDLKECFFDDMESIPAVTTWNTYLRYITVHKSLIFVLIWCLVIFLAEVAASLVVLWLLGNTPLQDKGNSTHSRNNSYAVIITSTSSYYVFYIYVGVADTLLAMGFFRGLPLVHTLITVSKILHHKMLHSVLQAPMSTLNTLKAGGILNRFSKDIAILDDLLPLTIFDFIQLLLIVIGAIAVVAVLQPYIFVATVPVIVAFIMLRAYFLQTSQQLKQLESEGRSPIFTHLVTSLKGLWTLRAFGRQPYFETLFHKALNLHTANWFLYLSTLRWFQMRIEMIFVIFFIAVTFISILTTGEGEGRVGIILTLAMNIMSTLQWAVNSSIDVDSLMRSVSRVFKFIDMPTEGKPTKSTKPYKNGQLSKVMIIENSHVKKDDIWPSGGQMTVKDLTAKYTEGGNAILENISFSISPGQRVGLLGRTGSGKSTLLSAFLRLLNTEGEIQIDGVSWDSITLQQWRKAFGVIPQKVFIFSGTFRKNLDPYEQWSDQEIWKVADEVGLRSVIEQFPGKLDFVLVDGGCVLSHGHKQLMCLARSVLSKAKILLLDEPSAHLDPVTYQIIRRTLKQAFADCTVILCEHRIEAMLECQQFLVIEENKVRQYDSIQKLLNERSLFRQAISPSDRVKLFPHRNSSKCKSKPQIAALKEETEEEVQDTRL
Summary of the method: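 Here the cells express ΔF508-CFTR with horseradish peroxidase inserted in extracellular loop 4, so only rescued channel at the surface gives luminescent signal. Compounds act on their own, 20 h at the reduced temperature of 33 °C; values are percent activity relative to DMSO and a 3 μM corrector.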

ΔF508-CFTR [2] = target: T1, ΔF508-CFTR; assay: CFTR cell surface levels using HRP-tagged ΔF508-CFTR expressing CFBE cells, in the presence of a co-corrector; format: cell-based; conditions: HRP-tagged ΔF508-CFTR expressing CFBE cells, in the presence of 3 μM co-corrector; for EC50: read-out: EC50
Summary of the method: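 Cells were seeded with 0.5 μg/mL doxycycline and held 68 h at 37 °C. Test compounds plus 3 μM co-corrector (final 0.1% DMSO) were then added for 20 h at 33 °C. Washed cells received HRP substrate, and luminescence was normalized between DMSO and 3 μM co-corrector controls.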

| SMILES | % Activation (ΔF508-CFTR [1]) [%] | EC50 (ΔF508-CFTR [1]) [nM] | % Activation (ΔF508-CFTR [2]) [%] | EC50 (ΔF508-CFTR [2]) [nM] |
| --- | --- | --- | --- | --- |
| Cc1nn(-c2ccccc2)c2nc(C(=O)O)cc(N3CC[C@@H](F)C3)c12 [compound 298, 4-[(3R)-3-fluoropyrrolidin-1-yl]-3-methyl-1-phenyl-1H-pyrazolo[3,4-b]pyridine-6-carboxylic acid] | 52.345 | 2510 | 206.45 | 2440 |
| Cc1nn(-c2ccccc2)c2nc(C(=O)O)cc(N3CCC(F)(F)C3)c12 [compound 299, 4-(3,3-difluoropyrrolidin-1-yl)-3-methyl-1-phenyl-1H-pyrazolo[3,4-b]pyridine-6-carboxylic acid] | 51.845 | 2510 | 194.8 | 2510 |
| Cc1nn(-c2ccccc2)c2nc(C(=O)O)cc(N3CC[C@H](F)C3)c12 [compound 300, 4-[(3S)-3-fluoropyrrolidin-1-yl]-3-methyl-1-phenyl-1H-pyrazolo[3,4-b]pyridine-6-carboxylic acid] | 41.065 | 2510 | 165 | 2510 |
| Cc1nn(-c2ccccc2)c2nc(C(=O)O)cc(N3CCN4C(=O)OCC4C3)c12 (stereo not shown) [compound 301, 3-methyl-4-(3-oxotetrahydro-3H-[1,3]oxazolo[3,4-a]pyrazin-7(1H)-yl)-1-phenyl-1H-pyrazolo[3,4-b]pyridine-6-carboxylic acid] | 12.64 | 7500 | 117.35 | 7500 |
| Cc1nn(-c2ccccc2)c2nc(C(=O)O)cc(N3CC(N4CCOCC4)C3)c12 [compound 302, 3-methyl-4-[3-(morpholin-4-yl)azetidin-1-yl]-1-phenyl-1H-pyrazolo[3,4-b]pyridine-6-carboxylic acid] | 18.02 | 7500 | 131.6 | 7500 |
| Cc1nn(-c2ccccc2)c2nc(C(=O)O)cc(N3CCC(NS(C)(=O)=O)CC3)c12 [compound 303, 4-{4-[(methanesulfonyl)amino]piperidin-1-yl}-3-methyl-1-phenyl-1H-pyrazolo[3,4-b]pyridine-6-carboxylic acid] | 10.878 | 7500 | 123.5 | 7500 |
| Cc1nn(-c2ccccc2)c2nc(C(=O)O)cc(N3CC4CC4C3)c12 (stereo not shown) [compound 304, 4-(3-azabicyclo[3.1.0]hexan-3-yl)-3-methyl-1-phenyl-1H-pyrazolo[3,4-b]pyridine-6-carboxylic acid] | 98.425 | 2510 | 254.9 | 1990 |
| Cc1nn(-c2ccccc2)c2nc(C(=O)O)cc(N3CCC(C(=O)N4CCCC4)CC3)c12 [compound 305, 3-methyl-1-phenyl-4-[4-(pyrrolidine-1-carbonyl)piperidin-1-yl]-1H-pyrazolo[3,4-b]pyridine-6-carboxylic acid] | 29.97 | 3120 | 170.5 | 1440 |
| Cc1nn(-c2ccccc2)c2nc(C(=O)O)cc(N3CC4(CCOC4)C3)c12 [compound 306, 3-methyl-4-(6-oxa-2-azaspiro[3.4]octan-2-yl)-1-phenyl-1H-pyrazolo[3,4-b]pyridine-6-carboxylic acid] | 22.69 | 7500 | 147.8 | 2510 |
| Cc1nn(-c2ccccc2)c2nc(C(=O)O)cc(N3CC4(CCCC4)C3)c12 [compound 307, 4-(2-azaspiro[3.4]octan-2-yl)-3-methyl-1-phenyl-1H-pyrazolo[3,4-b]pyridine-6-carboxylic acid] | 77.423 | 1920 | 233.4 | 1540 |
| Cc1nn(-c2ccccc2)c2nc(C(=O)O)cc(N3CC4(CCCOC4)C3)c12 [compound 308, 3-methyl-4-(6-oxa-2-azaspiro[3.5]nonan-2-yl)-1-phenyl-1H-pyrazolo[3,4-b]pyridine-6-carboxylic acid] | 59.78 | 2510 | 221.85 | 2510 |
| Cc1nn(-c2ccccc2)c2nc(C(=O)O)cc(N3CC4(CCCCC4)C3)c12 [compound 309, 4-(2-azaspiro[3.5]nonan-2-yl)-3-methyl-1-phenyl-1H-pyrazolo[3,4-b]pyridine-6-carboxylic acid] | 67.305 | 1330 | 237.3 | 1330 |
| Cc1nn(-c2ccccc2)c2nc(C(=O)O)cc(N3CCCC4(CC4)C3)c12 [compound 310, 4-(5-azaspiro[2.5]octan-5-yl)-3-methyl-1-phenyl-1H-pyrazolo[3,4-b]pyridine-6-carboxylic acid] | 88.73 | 1890 | 199.65 | 1610 |
| Cc1nn(-c2ccccc2)c2nc(C(=O)O)cc(N3CCC4(CCCO4)C3)c12 (stereo not shown) [compound 311, 3-methyl-4-(1-oxa-7-azaspiro[4.4]nonan-7-yl)-1-phenyl-1H-pyrazolo[3,4-b]pyridine-6-carboxylic acid] | 53.7 | 2510 | 195.5 | 2140 |
| Cc1nn(-c2ccccc2)c2nc(C(=O)O)cc(N3CC4(CCCCO4)C3)c12 [compound 312, 3-methyl-4-(5-oxa-2-azaspiro[3.5]nonan-2-yl)-1-phenyl-1H-pyrazolo[3,4-b]pyridine-6-carboxylic acid] | 61.325 | 2510 | 185 | 2320 |
| Cc1nn(-c2ccccc2)c2nc(C(=O)O)cc(N3CCC4(CCNC4=O)C3)c12 (stereo not shown) [compound 313, 3-methyl-4-(6-oxo-2,7-diazaspiro[4.4]nonan-2-yl)-1-phenyl-1H-pyrazolo[3,4-b]pyridine-6-carboxylic acid] | 11.239 | 7500 | 132.2 | 7500 |
| Cc1nn(-c2ccccc2)c2nc(C(=O)O)cc(N3CCC([C@H](F)CN(C)C)CC3)c12 [compound 314, 4-{4-[(1S)-2-(dimethylamino)-1-fluoroethyl]piperidin-1-yl}-3-methyl-1-phenyl-1H-pyrazolo[3,4-b]pyridine-6-carboxylic acid] | 92.46 | 2510 | 250.1 | 2510 |
| Cc1nn(-c2ccccc2)c2nc(C(=O)O)cc(N3CCCOCC3)c12 [compound 315, 3-methyl-4-(1,4-oxazepan-4-yl)-1-phenyl-1H-pyrazolo[3,4-b]pyridine-6-carboxylic acid] | 24.61 | 3430 | 150.3 | 4170 |
| CC(C)c1nn(-c2cccc(F)c2)c2nc(C(=O)O)cc(-c3cnc(N(C)C4CCOCC4)nc3)c12 [compound 316, 1-(3-fluorophenyl)-4-{2-[methyl(oxan-4-yl)amino]pyrimidin-5-yl}-3-(propan-2-yl)-1H-pyrazolo[3,4-b]pyridine-6-carboxylic acid] | 218.87 | 565 | 435.6 | 308 |
| CC(C)c1nn(-c2cc(F)cc(F)c2)c2nc(C(=O)O)cc(-c3cnc(N(C)C4CCOCC4)nc3)c12 [compound 317, 1-(3,5-difluorophenyl)-4-{2-[methyl(oxan-4-yl)amino]pyrimidin-5-yl}-3-(propan-2-yl)-1H-pyrazolo[3,4-b]pyridine-6-carboxylic acid] | 216.25 | 695 | 433.4 | 972 |
| COCCOC1CCN(c2cc(C(=O)O)nc3c2c(C)nn3-c2ccccc2)CC1 [compound 318, 4-[4-(2-methoxyethoxy)piperidin-1-yl]-3-methyl-1-phenyl-1H-pyrazolo[3,4-b]pyridine-6-carboxylic acid] | 134.15 | 2630 | 323.72 | 1860 |
| Cc1nn(-c2ccccc2)c2nc(C(=O)O)cc(N3CCC(C(=O)N(C)C)CC3)c12 [compound 319, 4-[4-(dimethylcarbamoyl)piperidin-1-yl]-3-methyl-1-phenyl-1H-pyrazolo[3,4-b]pyridine-6-carboxylic acid] | 80.905 | 2510 | 270.75 | 4170 |
| Cc1nn(-c2ccccc2)c2nc(C(=O)O)cc(N3CCCN(S(C)(=O)=O)CC3)c12 [compound 320, 4-[4-(methanesulfonyl)-1,4-diazepan-1-yl]-3-methyl-1-phenyl-1H-pyrazolo[3,4-b]pyridine-6-carboxylic acid] | 19.37 | > 10000 | 166.3 | 3340 |
| COCCCN1CCN(c2cc(C(=O)O)nc3c2c(C)nn3-c2ccccc2)CC1 [compound 321, 4-[4-(3-methoxypropyl)piperazin-1-yl]-3-methyl-1-phenyl-1H-pyrazolo[3,4-b]pyridine-6-carboxylic acid] | 39.85 | 2510 | 196.85 | 2510 |
| Cc1nn(-c2ccccc2)c2nc(C(=O)O)cc(N3CCN(C(=O)N4CCOCC4)CC3)c12 [compound 322, 3-methyl-4-[4-(morpholine-4-carbonyl)piperazin-1-yl]-1-phenyl-1H-pyrazolo[3,4-b]pyridine-6-carboxylic acid] | 12.25 | > 10000 | 154.55 | 3340 |
